A short description of data set [1]: Metal chelating activity of the compound assessed as Fe2+ complex formation after 30 mins by UV-Vis spectrometry. It is filed as physicochemical. The following applies: 0.5 h.
The species entered for data set [2] is Mus musculus. As to the kind of experiment: Cognitive enhancing effect in Kunming mouse assessed as inhibition of scopolamine-induced decreased spontaneous alternation behavior after 30 mins by T-maze test. It is filed as functional, organism-based.
The next data set relates to PC-12. As to the kind of experiment: Neuroprotective effect against H2O2-induced rat PC12 cell injury assessed as cell viability at 10 uM incubated for 2 hrs prior to H2O2 challenge measured after 24 hrs by MTT assay (reference value: 57.6%). It is filed as functional. The following applies: read-out: Activity. Background: Formazan colour is commonly taken as a measure of viable cells.

Data set [3] concerns Mus musculus. The data set can be described thus: Neuroprotective effect in Kunming mouse hippocampus assessed as reduction of scopolamine-induced vitality of AChE at 8 mg/kg by Ellman method. It is filed as functional. Background: Ellman's reagent forms a yellow product with free thiols.
The target in the next data set is T1, Acetylcholinesterase (Rattus norvegicus, UniProt P37136).
T1 sequence (P37136 whole entry): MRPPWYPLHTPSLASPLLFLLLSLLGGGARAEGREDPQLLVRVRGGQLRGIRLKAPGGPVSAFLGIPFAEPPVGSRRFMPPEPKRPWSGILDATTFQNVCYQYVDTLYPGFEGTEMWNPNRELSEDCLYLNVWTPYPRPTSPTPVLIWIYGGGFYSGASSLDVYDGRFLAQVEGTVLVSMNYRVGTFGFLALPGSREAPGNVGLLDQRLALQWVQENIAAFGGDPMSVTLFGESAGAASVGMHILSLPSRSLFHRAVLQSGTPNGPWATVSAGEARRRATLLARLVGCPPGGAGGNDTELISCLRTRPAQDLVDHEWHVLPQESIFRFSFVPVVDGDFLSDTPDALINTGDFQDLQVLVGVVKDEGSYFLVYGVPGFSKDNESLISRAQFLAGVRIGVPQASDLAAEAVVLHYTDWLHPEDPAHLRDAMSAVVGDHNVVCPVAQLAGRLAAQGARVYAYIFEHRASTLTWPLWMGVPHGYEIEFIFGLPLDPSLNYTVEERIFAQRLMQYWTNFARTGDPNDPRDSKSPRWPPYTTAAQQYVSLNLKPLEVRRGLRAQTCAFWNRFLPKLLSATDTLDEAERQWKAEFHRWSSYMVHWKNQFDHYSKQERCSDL
As to the kind of experiment: Inhibition of rat cortex AChE using acetylthiocholine iodide as substrate after 15 mins by Ellman method.

Data set [4] can be described thus: Metal chelating activity of the compound assessed as Cu2+ complex formation after 30 mins by UV-Vis spectrometry. The note with it: 0.5 h. It is filed as physicochemical.
In data set [5] the target is Acetylcholinesterase (Electrophorus electricus) (UniProt O42275). The data set can be described thus: Mixed-type inhibition of electric eel AChE using acetylthiocholine iodide as substrate at 0.5 to 1.5 uM after 15 mins by Lineweaver-Burk reciprocal plot analysis.
Sequence of Acetylcholinesterase (Electrophorus electricus) (O42275 24-633 limits assumed): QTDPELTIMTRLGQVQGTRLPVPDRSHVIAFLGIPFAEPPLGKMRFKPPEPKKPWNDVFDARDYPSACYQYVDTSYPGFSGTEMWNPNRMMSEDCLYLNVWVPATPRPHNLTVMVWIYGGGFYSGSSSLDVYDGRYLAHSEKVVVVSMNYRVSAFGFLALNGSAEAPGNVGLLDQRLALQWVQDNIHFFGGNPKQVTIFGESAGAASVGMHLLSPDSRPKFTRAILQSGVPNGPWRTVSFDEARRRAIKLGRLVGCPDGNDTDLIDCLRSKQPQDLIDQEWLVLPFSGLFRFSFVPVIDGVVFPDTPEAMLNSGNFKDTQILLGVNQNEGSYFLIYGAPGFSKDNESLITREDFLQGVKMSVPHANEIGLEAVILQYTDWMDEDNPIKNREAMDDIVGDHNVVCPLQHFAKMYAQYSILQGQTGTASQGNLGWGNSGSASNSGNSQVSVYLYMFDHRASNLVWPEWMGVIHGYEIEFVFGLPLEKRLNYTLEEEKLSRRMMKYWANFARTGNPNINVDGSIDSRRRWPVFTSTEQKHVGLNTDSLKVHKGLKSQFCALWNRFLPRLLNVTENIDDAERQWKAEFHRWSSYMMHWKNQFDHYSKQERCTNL
The species named for data set [6] is Mus musculus. As to the kind of experiment: Neuroprotective effect in scopolamine-treated Kunming mouse hippocampus assessed as increase in vitality of ChAT by Ellman method. It is filed as functional, organism-based.
Data set [7] concerns Mus musculus. As to the kind of experiment: Neuroprotective effect in scopolamine-treated Kunming mouse hippocampus assessed as increase in vitality of ChAT at 8 mg/kg by Ellman method. It is filed as functional.
A short description of data set [8]: Metal chelating activity of the compound assessed as Zn2+ complex formation after 30 mins by UV-Vis spectrometry. It is filed as physicochemical. The note with it: 0.5 h.
In data set [9] the test system is Mus musculus. The data set can be described thus: Toxicity in Kunming mouse assessed as change in behavior at 2 to 8 mg/kg. It is filed as organism-based. On the set-up: dose 2-8 mg/kg. The note with it: in vivo.
The species entered for another data set is Rattus norvegicus. As to the kind of experiment: Selectivity index, ratio of IC50 for rat serum BuChE to IC50 for rat cortex AChE. It is filed as cell-free.
The subject of data set [10] is Mus musculus. The data set can be described thus: Toxicity in Kunming mouse assessed as change in behavior at 6 mg/kg. On the set-up: dose 6 mg/kg. The note with it: in vivo. It is filed as organism-based.
The nature of data set [11]: Antioxidant activity assessed as trolox equivalent of […]-induced radical scavenging activity by ORAC-FL method. It is filed as physicochemical.
Data set [12] can be described thus: Metal chelating activity of the compound assessed as Al3+ complex formation after 30 mins by UV-Vis spectrometry. It is filed as physicochemical. The note with it: 0.5 h.
The species named for data set [13] is Mus musculus. As to the kind of experiment: Neuroprotective effect in Kunming mouse hippocampus assessed as reduction of scopolamine-induced vitality of AChE by Ellman method. It is filed as functional, organism-based.
Data set [14] concerns Mus musculus. As to the kind of experiment: Cognitive enhancing effect in Kunming mouse assessed as inhibition of scopolamine-induced decreased spontaneous alternation behavior at 8 mg/kg after 30 mins by T-maze test. On the set-up: scale not given: the % may be the effect or the level left. It is filed as functional.
Data set [15] is described as follows: Inhibition of rat serum BuChE using butyrylthiocholine iodide as substrate after 15 mins by Ellman method. It is filed as cell-free.
For data set [16], the system named is Mus musculus. As to the kind of experiment: Neuroprotective effect in Kunming mouse hippocampus assessed as reduction of scopolamine-induced vitality of AChE at 6 mg/kg by Ellman method. It is filed as functional.
In data set [17] the test system is Mus musculus. The data set can be described thus: Cognitive enhancing effect in Kunming mouse assessed as inhibition of scopolamine-induced decreased spontaneous alternation behavior at 6 mg/kg after 30 mins by T-maze test. It is filed as functional. On the set-up: scale not given: the % may be the effect or the level left.
Data set [18] has as its system Mus musculus. The data set can be described thus: Neuroprotective effect in scopolamine-treated Kunming mouse hippocampus assessed as increase in vitality of ChAT at 6 mg/kg by Ellman method. It is filed as functional.

Structures are written as SMILES. Calls of active or inactive are those of the source. The calls are words filed in the database; no cut-off is given here.

By IC50 is commonly meant the concentration needed to halve the response being measured.

Regarding `CCN(CC)C(=O)Oc1ccc(-c2cc(=O)c3c(O)c(OC)c(OC)cc3o2)cc1`, the Activity result in data set [1] was “Not Active”; in the data set filed under Mus musculus [2], “Dose-dependent effect”; in the data set with Mus musculus [3] it was 0.11 U/mg; in data set [4] it was “Not Active”; in the data set listed under Mus musculus [6] it was “Dose-dependent effect”; in the data set on Mus musculus [7], 45.2 U/mg. Further, the Activity result is “Not Active” in data set [8]; “Non-toxic” in the data set with Mus musculus [9]; “Non-toxic” with Mus musculus [10]; 1.3 in [11]; “Not Active” in data set [12]; “Dose-dependent effect” in the data set filed under Mus musculus [13]. Besides, the Activity in the data set on Mus musculus [14] is 68.7%. The viability at 10 µM with PC-12 was determined as 78.5%. For the same compound, the IC50 amounted to 570 nM at Acetylcholinesterase and 22.6 µM in data set [15]. In data set [5], the inhibition result was “Active”. Also, the Ratio IC50 in the data set listed under Rattus norvegicus was 39.7.

Take `CCN(C)C(=O)Oc1cccc([C@H](C)N(C)C)c1` [RIVASTIGMINE]: the Activity in the data set with Mus musculus [16] was 0.087 U/mg; with Mus musculus [17], 67.3%; with Mus musculus [18] it was 44.8 U/mg. The same compound showed a half-maximal inhibitory concentration (IC50) in [15] of 1.4 µM.

Turning to `CCN(CC)C(=O)Oc1ccc(-c2cc(=O)c3c(OC)c(OC)c(OC)cc3o2)cc1`, the Activity result in data set [1] was “Active”; in data set [4], “Active”; in data set [8], “Active”; in data set [11] it was 0.36; in [12], “Active”. In the data set with PC-12, the viability at 10 µM was 70.3%. Moreover, the concentration for half-maximal inhibition (IC50) at Acetylcholinesterase is 340 nM; in [15], 8.2 µM. For the same compound, the Ratio IC50 in the data set listed under Rattus norvegicus came out at 24.1.

Source of the values: ChEMBL document CHEMBL3399969, “Multifunctional scutellarin-rivastigmine hybrids with cholinergic, antioxidant, biometal chelating and neuroprotective properties for the treatment of Alzheimer's disease” (Bioorg Med Chem, 2015).
